“Also recorded” adds a separate entry of the source.

The subject of the experiment is cultured hippocampal neurons. Briefly: hydrogen peroxide neurotoxicity. Format: cell-based, rat. From the text:
Dissociated embryonic rat hippocampal cell cultures were established and maintained. All procedures conformed with the NIH Guide for the Care and Use of Laboratory Animals and were approved by the University of Kentucky Animal Care and Use Committee. Cultures were maintained on a polyethyleneimine-coated substrate in plastic 35-mm dishes or 96 wall plates (for cell survival studies) or glass-bottom 35-mm dishes (for [Ca^2+ ]i imaging studies). The cell density was ^~ 70-100 cells/mm^2. Cells were maintained in Eagle's minimum essential medium supplemented 10% with fetal bovine serum and containing 20 mM sodium pyruvate. […] Aβ25-35 (Bachem, lot ZJ744) and Aβ1-40 (Bachem, lot ZK600) were stored in the lyophilized form, and stocks were prepared immediately before use by dissolving the peptide at a concentration of 1 mM in sterile distilled water. […] Glutamate and colchicine (Sigma) were prepared as 200-500x stocks in saline. Cytochalasins D and E (Sigma) and calcium ionophore 4-bromo-A23187 (Calbiochem) were prepared as 500x stocks in dimethyl sulfoxide. Vitamin E (α-tocopherol; Sigma) was prepared as a 500x stock in ethanol. Nordihydroguaiaretic acid and FeSo4 were prepared as 500x stocks in sterile water.
Neuronal survival was quantified by counting viable neurons in the same microscope fields (10x objective) immediately before experimental treatment and at time points after treatment. In addition, cells were grown in 96-well plates and Alamar blue fluorescence (Alamar Laboratories)was quantified by using a fluorescence plate reader. Alamar Blue is a non-fluorescent substrate that, after reduction by cell metabolites, becomes fluorescent. […] Viability of the remaining neurons was assessed by morphological criteria. Neutrons with intact neurites of uniform diameter and a soma with a smooth, round appearance were considered viable, whereas neurons with fragmented neurites and a vacuolated or swollen soma were considered nonviable. Survival values were expressed as percentages of the initial number of neurons present before experimental treatment. Statistical comparisons were made using ANOVA and Scheffe post-hoc tests for pairwise comparisons.
FIG. 15. […] Cultures were pretreated for 1 h with vehicle (Control), 100 nM cytochalasin D (CyD), or 50 μg/ml vitamin E (vE) and then exposed for 20 h to the indicated concentrations of hydrogen peroxide. Data are mean and SEM values of determinations made in four separate cultures.

Turning to `C=C1[C@@H](C)[C@H]2[C@H](Cc3ccccc3)NC(=O)[C@]23[C@H](OC(C)=O)/C=C/[C@@](C)(O)C(=O)[C@@H](C)C/C=C/[C@H]3[C@@H]1O` [Cytochalasin D, cytochalasin D], under “100 nM, 1 h pretreatment, 20 h”, the “effect on neuronal killing by hydrogen peroxide” value is given as “not altered; also recorded: does not protect neurons against hydrogen peroxide toxicity”. The antioxidant activity result (suggested from hydrogen peroxide test) is given as “little or no antioxidant activity”.

Source of the values: US5830910A (priority 1995, dated 1998).
